Laboratory results from patent US20250051403A1, “ANTIMICROBIAL PEPTIDES, VARIANTS AND CHEMICAL ANALOGUES THEREOF AND THEIR USES” (priority 2021, published 2025).
≈ marks a conversion by molar mass, not a printed value. Like-named read-outs stand apart in the source and are kept apart here. Positions of bridges follow the written chain, without caps; N, C: chain ends. Residues, ends and D or L forms follow the SMILES beside them.

Experiments:
[1] = system: V. alginolyticus (MPV19 IFREMER); assay: MIC, broth microdilution; type: cell-based, Vibrio alginolyticus
[2] = system: Escherichia coli (ATCC 8739); assay: MIC, broth microdilution; type: cell-based; settings: ATCC 8739
[3] = system: Staphylococcus aureus (ATCC 6538P); assay: MIC, broth microdilution; type: cell-based; settings: ATCC 6538
S. aureus (Pasteur) = assay: MIC, broth microdilution; type: cell-based, Staphylococcus aureus; settings: Pasteur
[4] = system: S. aureus methicillin resistant USA300 (ATCC BAA-1717); assay: MIC, broth microdilution; type: cell-based, Staphylococcus aureus; settings: USA300
[5] = system: P. aeruginosa Fluoroquinolone resistant (CIP 107398); assay: MIC, broth microdilution; type: cell-based, Pseudomonas aeruginosa; settings: CIP 107398
[6] = system: Acinetobacter baumannii (CIP 103572); assay: MIC, broth microdilution; type: cell-based; settings: CIP 103572
[7] = system: Klebsiella pneumoniae carbapenem-resistant (DSMZ 26371); assay: MIC, broth microdilution; type: cell-based; settings: DSMZ 26371
[8] = system: Enterococcus faecalis Vancomycin-resistant (DSMZ 13591); assay: MIC, broth microdilution; type: cell-based; settings: DSMZ 13591
[9] = system: Helicobacter pylori (ATCC 43504); assay: MIC, broth microdilution; type: cell-based; settings: ATCC 43504
[10] = system: Burkholderia cepacia (DSM 7288); assay: MIC, broth microdilution; type: cell-based; settings: DSM 7288
Serratia marcescens = assay: MIC, broth microdilution; type: cell-based
Pseudomonas sp biofilm = assay: Biofilm formation assay (crystal violet); type: cell-based; settings: 20 μM peptide, 2 h at 37° C. on 48 h biofilm; untreated culture 0.95
Protocol: Overnight cultures of V. diabolicus and Pseudomonas sp (37° C., 200 rpm) were diluted to an OD600 of 0.1 in MHB medium and 200 μL aliquots of the suspensions were introduced into the wells of a 96 microtiter plates (Nunc). Plates were then incubated at 37° C. without shaking for 48 h. After removal of the standing culture, the wells were washed with MHB medium and Michelicin, Arenicin and Alvinellacin were added, respectively, at a final concentration of 20 μM in MHB. The treatment was performed during 2 h at 37° C. Wells were then washed three times with distilled water and the remaining attached bacteria were fixed with 99% methanol per well for 20 min at room temperature. Afterward, methanol was removed and plates were air-dried. Biofilms were stained with 300 μL of 1% crystal violet (v/v) for 20 min at room temperature, before the residual stain was removed. After washing, the crystal violet bound to the adherent cells was solubilized with 300 μL of 100% ethanol and absorbance was measured at 595 nm (TECAN, sunrise). Sterile medium served as negative control. It is clear on the view of FIG. 3 that Michelicin has a greater antimicrobial activity on a biofilm of Pseudomonoas sp strains than Alvinellacin. For Pseudomonas sp, OD595 is equal to 0.6 when treated with Michelicin, equal to 0.55 when treated with Arenicin and equal to 0.65 when treated with Alvinellacin. […]

[11] = Cytotoxicity, resazurin cell viability; type: cell-based, human; settings: human
Protocol: The toxicity of Michelicin on human cells was tested as previously described (Borie et al., 2017; Oyama et al., 2017). Briefly, human cells were cultured in Dulbecco's modified essential medium (DMEM) supplemented with 10% fetal calf serum (FCS), 1% L-glutamine and 1% antibiotics (all from Invitrogen). Cells were routinely grown in onto 25 cm^2 flasks maintained in a 5% CO2 incubator at 37° C. For toxicity assay, cells grown on 25 cm^2 flasks were detached using trypsin-EDTA solution (Thermofisher) and seeded into 96-well cell culture plates (Greiner Bio-one) at approximately 10^4 cells per well (counted using Mallasez's chamber). The cells were grown at 37° C. in a 5% CO2 incubator until they reached confluence (approximately 48-72 h of seeding). Wells were then aspirated and increasing concentrations of AMP were added to the cells and incubated for a further 48 h at 37° C. in a 5% CO2 incubator. The wells were then emptied, and cell viability was evaluated using resazurin based in vitro toxicity assay kit (Sigma-Aldrich) following manufacturer's instructions. Briefly, resazurin stock solution was diluted 1:100 in sterile PBS containing calcium and magnesium (PBS++, pH 7.4) and emptied wells were filled with 100 μL of the resazurin diluted solution. After 4 h incubation at 37° C. with the peptide treated cells, fluorescence intensity was measured using microplate reader (SynerMix, Bioteck) (excitation wavelength of 530 nm/emission wavelength of 590 nm). The fluorescence values were normalized by the controls and expressed as percentage of cell viability. The IC50 values of tested AMP on cell viability (i.e. the concentration of peptides causing a reduction of 50% of the cell viability) were calculated using GraphPad® Prism 7 software. Two cell lines were tested: Human Bronchial Epithelial Cell Line (BEAS; ATCC CRL-9609) and Human umbilical vein endothelial cell (HUVEC).

[12] = system: E. coli carbapenem- resistant (DSMZ 22314); settings: DSMZ 22314
[13] = system: A. baumannii antibiotic resistant (CIP 110431); settings: CIP 110431
[14] = system: Mycobacterium tuberculosis mc^26230
Jurkat human cells = settings: cited from earlier work

SMILES: CC(C)C[C@@H]1NC(=O)[C@H](C(C)C)NC(=O)CNC(=O)[C@H](CCCNC(=N)N)NC(=O)[C@H](C(C)C)NC(=O)[C@H](CCCNC(=N)N)NC(=O)[C@H](C(C)C)NC(=O)[C@H](Cc2ccc(O)cc2)NC(=O)[C@H](C)NC(=O)[C@H](Cc2ccc(O)cc2)NC(=O)[C@H](C(C)C)NC(=O)[C@@H](NC(=O)[C@H](Cc2c[nH]c3ccccc23)NC(=O)[C@@H](N)CCCNC(=N)N)CSSC[C@@H](C(=O)N[C@@H](Cc2c[nH]c3ccccc23)C(=O)O)NC(=O)[C@H](CCCNC(=N)N)NC(=O)[C@H](CCCNC(=N)N)NC(=O)[C@H](Cc2ccc(O)cc2)NC(=O)[C@H](CCCNC(=N)N)NC(=O)[C@H](C(C)C)NC1=O [Arenicin] (H-RWCVYAYVRVRGVLVRYRRCW-OH; disulfide 3-20)
- MIC [1]: 0.15 to 0.31 µM
- MIC with 565 mM NaCl [1]: 2.5 to 5 µM
- MIC [2]: 2.5 to 5 µM
- MIC [3]: 1.25 to 2.5 µM
- MIC (S. aureus (Pasteur)): 1.25 to 2.5 µM
- MIC [4]: 5 to 10 µM
- MIC [5]: 1.25 to 2.5 µM
- MIC [6]: 1.25 to 2.5 µM
- MIC [7]: 1.25 to 2.5 µM
- MIC [8]: 1.25 to 2.5 µM
- MIC [9]: 1.25 to 2.5 µM
- MIC [10]: 25 µM (≈ 69 µg/mL)
- MIC (Serratia marcescens): >50 µM
- Biofilm OD595 after treatment (Pseudomonas sp biofilm): 0.55
- viability at 48 h, 80 µM ([11]; BEAS human bronchial epithelial cells (ATCC CRL-9609)): 95%
- viability at 48 h, 80 µM ([11]; HUVEC (human umbilical vein endothelial cells)): 40%
- MIC (Vibrio alginolyticus): 0.15 to 0.31 µM
- MIC with 565 mM NaCl (Vibrio alginolyticus): 0.07 to 0.15 µM
- MIC (Vibrio alginolyticus; 24 h): 0.15 to 0.31 µM
- MIC (V. diabolicus (HE 800)): 1.25 to 2.5 µM
- MIC with 565 mM NaCl (V. diabolicus (HE 800)): 10 to 20 µM
- MIC (Bacillus megaterium): 0.07 to 0.15 µM
- MIC with 565 mM NaCl (Bacillus megaterium): 20 to 40 µM
- MIC [12]: 2.5 to 5 µM
- MIC [13]: 20 to 40 µM
- MIC [14]: 7.1 to 12.2 µM
- MIC (M. smegmatis mc^2155): 0.7 to 10 µM
- Cytotoxicity towards Jurkat human cells (Jurkat human cells): cytotoxic
